Experimental data as given in patent US8399712B2 (priority 2010, dated 2013).
Each block holds one compound with its values, some of them ahead of it.

Legend:
[1] = Relative humidity stability, saturated salt solutions at ambient temperature, XRPD; assay type: physicochemical; settings: for Dissociation by XRPD: 75, 94, or 98% RH after four weeks
Excerpt: Upon completion of the duration allowed, the samples were immediately analyzed by XRPD.

[2] = Slurrying in water, resulting solid form; assay type: physicochemical; settings: for Behaviour upon slurrying in water: three days
hyperglycemic rats = settings: cited from earlier work
cancer cell lines = settings: in vitro; cited from earlier work
[3] = literature; cited from earlier work
[4] = literature (Lopez-Nicolas 2009); cited from earlier work
[5] = Attempted intrinsic dissolution of cocrystal 3 in 900 mL water; assay type: physicochemical; settings: 900 mL water at ambient conditions, after 30 minutes
Description: Intrinsic dissolution in 900 mL water at ambient conditions was also attempted. […] Therefore, a concentration vs. time and intrinsic dissolution rate value were unobtainable at these conditions.

[6] = assay type: physicochemical; settings: slurrying in water at ambient, after 5 minutes

Compound: Cn1c(=O)c2c(ncn2C)n(C)c1=O [caffeine, reference compound]
Results (form by XRPD) ([1]; 75% RH, 1 week): caffeine anhydrous
Results (form by XRPD) ([1]; 75% RH, 4 weeks): caffeine anhydrous
Results (form by XRPD) ([1]; 75% RH, 1 day): caffeine anhydrous
Results (form by XRPD) ([1]; 75% RH, 3 days): caffeine anhydrous
Conversion to hydrate ([1]; 75% RH, up to four weeks): does not display signs of conversion
Conversion to hydrate ([1]; 94% RH): between one and three days at 94% RH partial conversion
Results (form by XRPD) ([1]; 94% RH, 1 week (7 days)): caffeine hydrate
Results (form by XRPD) ([1]; 94% RH, 4 weeks): caffeine hydrate
Results (form by XRPD) ([1]; 94% RH, 1 day): caffeine anhydrous
Results (form by XRPD) ([1]; 94% RH, 3 days): caffeine anhydrous/caffeine hydrate
Conversion to hydrate ([1]; 98% RH): converts to caffeine hydrate in less than one day
Results (form by XRPD) ([1]; 98% RH, 1 week): caffeine hydrate
Results (form by XRPD) ([1]; 98% RH, 4 weeks): caffeine hydrate
Results (form by XRPD) ([1]; 98% RH, 1 day): caffeine hydrate
Results (form by XRPD) ([1]; 98% RH, 3 days): caffeine hydrate

Compound: COc1cc(/C=C/c2ccc(O)cc2)cc(OC)c1.Cn1c(=O)c2c(ncn2C)n(C)c1=O [cocrystal 1 (Form I), pterostilbene:caffeine]
Results (form by XRPD) ([1]; 75% RH, 1 week): cocrystal 1 (Form I), no caffeine hydrate
Results (form by XRPD) ([1]; 75% RH, 1 week, additional stress at 98% RH): cocrystal 1 (Form I), no caffeine hydrate
Results (form by XRPD) ([1]; 75% RH, 4 weeks): cocrystal 1 (Form I), no caffeine hydrate
Results (form by XRPD) ([1]; 75% RH, 1 day): cocrystal 1 (Form I), no caffeine hydrate
Results (form by XRPD) ([1]; 75% RH, 1 day, additional stress at 98% RH): cocrystal 1 (Form I), no caffeine hydrate
Results (form by XRPD) ([1]; 75% RH, 3 days): cocrystal 1 (Form I), no caffeine hydrate
Results (form by XRPD) ([1]; 94% RH, 1 week (7 days)): cocrystal 1 (Form I), no caffeine hydrate
Results (form by XRPD) ([1]; 94% RH, 4 weeks): cocrystal 1 (Form I), no caffeine hydrate
Results (form by XRPD) ([1]; 94% RH, 1 day): cocrystal 1 (Form I), no caffeine hydrate
Results (form by XRPD) ([1]; 94% RH, 3 days): cocrystal 1 (Form I), no caffeine hydrate
Results (form by XRPD) ([1]; 94% RH, 7 days, additional stress at 98% RH, 4 weeks): cocrystal 1 (Form I), no caffeine hydrate
Results (form after stress) ([2]; slurry, 2 days): cocrystal 1 (Form I), no caffeine hydrate
Behaviour upon slurrying in water [2]: precipitation of pterostilbene

Compound: COc1cc(/C=C/c2ccc(O)cc2)cc(OC)c1.Cn1c(=O)c2c(ncn2C)n(C)c1=O [cocrystal 1, pterostilbene:caffeine]
Dissociation by XRPD [1]: no dissociation

Compound: CN(C)C(=N)N=C(N)N [metformin]
Decrease of plasma glucose levels (hyperglycemic rats): 48%

Compound: COc1cc(/C=C/c2ccc(O)cc2)cc(OC)c1 [pterostilbene, trans-3,5-dimethoxy-4′-hydroxystilbene]
Cytotoxic activity against cancer cell lines (cancer cell lines): demonstrated cytotoxic activity
Bioavailability [3]: poor bioavailability
Solubility in water [4]: poor solubility in water

Results (form by XRPD) ([1]; 75% RH, 1 week): cocrystal 2, no carbamazepine dihydrate
Results (form by XRPD) ([1]; 75% RH, 4 weeks): cocrystal 2, no carbamazepine dihydrate
Results (form by XRPD) ([1]; 75% RH, 1 day): cocrystal 2, no carbamazepine dihydrate
Results (form by XRPD) ([1]; 75% RH, 3 days): cocrystal 2, no carbamazepine dihydrate
Results (form by XRPD) ([1]; 94% RH, 1 week (7 days)): cocrystal 2, no carbamazepine dihydrate
Results (form by XRPD) ([1]; 94% RH, 4 weeks): cocrystal 2, no carbamazepine dihydrate
Results (form by XRPD) ([1]; 94% RH, 1 day): cocrystal 2, no carbamazepine dihydrate
Results (form by XRPD) ([1]; 94% RH, 3 days): cocrystal 2, no carbamazepine dihydrate
Results (form by XRPD) ([1]; 98% RH, 1 week): cocrystal 2, no carbamazepine dihydrate
Results (form by XRPD) ([1]; 98% RH, 4 weeks): cocrystal 2, no carbamazepine dihydrate
Results (form by XRPD) ([1]; 98% RH, 1 day): cocrystal 2, no carbamazepine dihydrate
Results (form by XRPD) ([1]; 98% RH, 3 days): cocrystal 2, no carbamazepine dihydrate
Behaviour upon slurrying in water [2]: stable
Compound: pterostilbene:carbamazepine [cocrystal 2]

Dissociation by XRPD [1]: no dissociation
XRPD result of attempted intrinsic dissolution [5]: crystalline pterostilbene
XRPD result of attempted powder dissolution [6]: crystalline pterostilbene
Compound: pterostilbene:glutaric acid [cocrystal 3]
